Assays:
[1] = 303.15 K, 101.33 kPa, Liquid; for viscosity: Capillary tube (Ostwald / Ubbelohde) method; for mass density: Vibrating tube method
[2] = xn = mol fraction of the nth substance listed; conditions: 303.15 K, 101 kPa, Liquid; for viscosity: Capillary tube (Ostwald / Ubbelohde) method; for mass density: Vibrating tube method

C1CCCCC1 [cyclohexane]
[1]
Conditions | mass density [kg/m3] | viscosity [mPa·s]
– | 769.12 | 0.821

CCCCO [butan-1-ol]
[1]
Conditions | mass density [kg/m3] | viscosity [mPa·s]
– | 801.9 | 2.25

CCCCCO [pentan-1-ol] + CCOC(C)=O
[2]
Conditions | mass density [kg/m3] | viscosity [mPa·s]
x1 = 0.1095 | 877.42 | 0.474
x1 = 0.2164 | 867.46 | 0.541
x1 = 0.3291 | 857.43 | 0.626
x1 = 0.4303 | 848.83 | 0.722
x1 = 0.5202 | 841.5 | 0.829
x1 = 0.6103 | 834.44 | 0.97
x1 = 0.7187 | 826.3 | 1.211
x1 = 0.8051 | 820.09 | 1.508
x1 = 0.9009 | 813.46 | 2.017

CCCCCO [pentan-1-ol]
[1]
Conditions | mass density [kg/m3] | viscosity [mPa·s]
– | 807.11 | 2.839

CCCCCCCCO [octan-1-ol] + C1CCCCC1
[2]
Conditions | mass density [kg/m3] | viscosity [mPa·s]
x1 = 0.2008 | 780.75 | 1.242
x1 = 0.3755 | 789.9 | 1.792
x1 = 0.5205 | 796.98 | 2.4
x1 = 0.6054 | 800.89 | 2.847
x1 = 0.7044 | 805.34 | 3.46
x1 = 0.7758 | 808.38 | 3.983
x1 = 0.8541 | 811.63 | 4.633
x1 = 0.901 | 813.56 | 5.089
x1 = 0.9553 | 815.75 | 5.664

CCCCCCCCO [octan-1-ol] + CCOC(C)=O
[2]
Conditions | mass density [kg/m3] | viscosity [mPa·s]
x1 = 0.0809 | 878.16 | 0.537
x1 = 0.162 | 869.16 | 0.68
x1 = 0.3257 | 854.09 | 1.028
x1 = 0.4413 | 845.4 | 1.314
x1 = 0.5431 | 838.72 | 1.596
x1 = 0.6637 | 831.83 | 2.04
x1 = 0.7062 | 829.6 | 2.26
x1 = 0.8574 | 822.7 | 3.545
x1 = 0.9251 | 820.07 | 4.563

CCCCCCCCO [octan-1-ol]
[1]
Conditions | mass density [kg/m3] | viscosity [mPa·s]
– | 817.52 | 6.19

CCOC(C)=O [ethyl acetate] + CCCCO
[2]
Conditions | mass density [kg/m3] | viscosity [mPa·s]
x2 = 0.1411 | 875.69 | 0.467
x2 = 0.3184 | 859.95 | 0.563
x2 = 0.3797 | 854.67 | 0.609
x2 = 0.4659 | 847.1 | 0.673
x2 = 0.5634 | 838.65 | 0.766
x2 = 0.6782 | 828.8 | 0.92
x2 = 0.7595 | 821.86 | 1.076
x2 = 0.8312 | 815.82 | 1.287
x2 = 0.9291 | 807.64 | 1.736

CCOC(C)=O [ethyl acetate]
[1]
Conditions | mass density [kg/m3] | viscosity [mPa·s]
– | 888.5 | 0.4
